Bounds are passed on as bounds.

These results are taken from patent US10836759B2, “Thiazole derivatives useful as mutant IDH1 inhibitors for treating cancer” (THE UNITED STATES OF AMERICA, AS REPRESENTED BY THE …, priority 2016, dated 2020).

In one assay the target is IDH1 R132H (Homo sapiens, UniProt O75874, R132H). The assay can be described thus: Enzymatic inhibition assay, mutant IDH1 R132H (NADPH depletion coupled to diaphorase/resazurin). The settings on record: IDH1 R132H enzyme, IC50 class. It is filed as biochemical. The protocol:
(§1) Assays were conducted in a 1536-well black solid-bottom plate with a final assay volume of 9 μL.
Specifically, for IDH1 R132H, 3 μL of enzyme (4 mM β-ME, 0.0005 mg/mL IDH1 R132H, 150 mM NaCl, 20 mM Tris pH 7.5, 10 mM MgCl2, 0.05% BSA) were added to the plate, followed by the addition of 23 nL of test compound in DMSO. The plate was lidded and incubated at room temperature for 30 minutes at which time 3 μL of substrate were added (0.016 mM NADPH, 2 mM α-KG, 150 mM NaCl, 20 mM Tris pH 7.5, 10 mM MgCl2, 0.05% BSA). This reaction was incubated at room-temperature for 60 minutes at which time the detection mix was added (0.06 mg/mL diaphorase, 0.036 mM resazurin, 150 mM NaCl, 20 mM Tris pH 7.5, 10 mM MgCl2, 0.05% BSA). […]

In a further assay the target is IDH1 R132C (Homo sapiens, UniProt O75874, R132C). Briefly: Enzymatic inhibition assay, mutant IDH1 R132C (NADPH depletion coupled to diaphorase/resazurin). It counts as biochemical. The settings on record: IDH1 R132C enzyme, IC50 class. The procedure:
as §1
For IDH1 R132C, 3 μL of enzyme (0.00032 mg/mL IDH1 R132H, 10% glycerol, 50 mM potassium phosphate pH 6.5, 5 mM MgCl2, 0.03% BSA) were added to the plate, followed by the addition of 23 nL of test compound in DMSO. The plate was lidded and incubated at room temperature for 30 minutes at which time 3 μL of substrate were added (0.012 mM NADPH, 0.6 mM α-KG, 10% glycerol, 50 mM potassium phosphate pH 6.5, 5 mM MgCl2, 0.03% BSA). […]
A general note: The colour change of resazurin is a common sign of viable cells or microbes.

Chain of IDH1 R132C (O75874 whole entry R132C): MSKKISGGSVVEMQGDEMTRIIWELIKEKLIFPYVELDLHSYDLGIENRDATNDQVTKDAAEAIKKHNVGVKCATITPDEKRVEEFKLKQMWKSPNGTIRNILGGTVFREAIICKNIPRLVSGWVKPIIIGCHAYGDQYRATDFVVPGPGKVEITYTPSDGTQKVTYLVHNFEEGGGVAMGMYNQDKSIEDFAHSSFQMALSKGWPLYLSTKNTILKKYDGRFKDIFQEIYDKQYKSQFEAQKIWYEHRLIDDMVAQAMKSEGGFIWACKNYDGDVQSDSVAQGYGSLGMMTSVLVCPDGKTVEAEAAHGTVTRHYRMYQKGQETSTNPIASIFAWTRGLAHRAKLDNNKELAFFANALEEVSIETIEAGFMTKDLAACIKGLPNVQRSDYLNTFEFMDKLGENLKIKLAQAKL
Chain of IDH1 R132H (O75874 whole entry R132H): as the sequence (O75874 whole entry R132C) above, with C132H counted along it

By IC50 is commonly meant the point on the concentration scale where inhibition reaches its midpoint. Read a low IC50 as higher potency. On to `CCOc1ccc(Cl)cc1-n1c(C=C(C)C)c(C(=O)N2CC3CCC(C2)N3)cc(-c2nc(-c3ccc(Cl)cc3)cs2)c1=O` (single isomer, unassigned) [Compound 113-1], for which the IC50 at IDH1 R132H and against IDH1 R132C was under 300 nM throughout.

Take `CCOc1ccc(Cl)cc1-n1c(C=C(C)C)c(C(=O)N2CC3CCC(C2)N3)cc(-c2nc(-c3ccc(Cl)cc3)cs2)c1=O` (single isomer, unassigned) [Compound 113-2]: the IC50 against IDH1 R132H was in the range of 1000 to 5000 nM; against IDH1 R132C, 300 to 1000 nM. In the same order, the values of `CCc1ccc(OC)cc1-n1c(C=C(C)C)c(C(=O)N2C[C@H]3CC[C@@H](C2)N3)cc(-c2nc(-c3ccc(Cl)cc3)cs2)c1=O` (single isomer, unassigned) [Compound 114-1] are under 300 nM and under 300 nM. For `CCc1ccc(OC)cc1-n1c(C=C(C)C)c(C(=O)N2C[C@H]3CC[C@@H](C2)N3)cc(-c2nc(-c3ccc(Cl)cc3)cs2)c1=O` (single isomer, unassigned) [Compound 114-2] the same measures were 300 to 1000 nM and 300 to 1000 nM. For `CCOc1ccc(Cl)c(-n2c(C=C(C)C)c(C(=O)N3CC4CCC(C3)N4)cc(-c3nc(-c4ccc(Cl)cc4)cs3)c2=O)c1` (single isomer, unassigned) [Compound 126-1] the same measures were under 300 nM and under 300 nM. As to `CCOc1ccc(Cl)c(-n2c(C=C(C)C)c(C(=O)N3CC4CCC(C3)N4)cc(-c3nc(-c4ccc(Cl)cc4)cs3)c2=O)c1` (single isomer, unassigned) [Compound 126-2], the IC50 against IDH1 R132H and at IDH1 R132C was 1000 to 5000 nM each time.

In the case of `CCc1ccc(Cl)cc1-n1c(C=C(C)C)c(C(=O)N2CC3CCC(C2)N3)cc(-c2nc(-c3ccc(Cl)cc3)cs2)c1=O` (single isomer, unassigned) [Compound 133-1], the IC50 against IDH1 R132H is 300 to 1000 nM; against IDH1 R132C it was under 300 nM. For `CCc1ccc(Cl)cc1-n1c(C=C(C)C)c(C(=O)N2CC3CCC(C2)N3)cc(-c2nc(-c3ccc(Cl)cc3)cs2)c1=O` (single isomer, unassigned) [Compound 133-2] the same measures were 1000 to 5000 nM and 300 to 1000 nM. In the same order, the values of `CCOc1ccc(Cl)c(-n2c(C=C(C)C)c(C(=O)N3CCNCC3)cc(-c3nc(-c4ccc(Cl)cc4)cs3)c2=O)c1` (single isomer, unassigned) [Compound 139-1] are under 300 nM and under 300 nM. As for `CCOc1ccc(Cl)c(-n2c(C=C(C)C)c(C(=O)N3CCNCC3)cc(-c3nc(-c4ccc(Cl)cc4)cs3)c2=O)c1` (single isomer, unassigned) [Compound 139-2], the IC50 was in the range of 300 to 1000 nM at IDH1 R132H and 1000 to 5000 nM against IDH1 R132C.

Take `CCOc1ccc(Cl)cc1-n1c(C=C(C)C)c(C(=O)N2CCNCC2)cc(-c2nc(-c3ccc(C#N)cc3)cs2)c1=O` (single isomer, unassigned) [Compound 140-1]: the IC50 against IDH1 R132H and against IDH1 R132C was under 300 nM in each case. Consider `CCOc1ccc(Cl)cc1-n1c(C=C(C)C)c(C(=O)N2CCNCC2)cc(-c2nc(-c3ccc(C#N)cc3)cs2)c1=O` (single isomer, unassigned) [Compound 140-2], for which the IC50 is under 300 nM against IDH1 R132H and 300 to 1000 nM at IDH1 R132C.

With `CCOc1ccc(Cl)cc1-n1c(C=C(C)C)c(C(=O)N2CC3CCC(C2)N3)cc(-c2nc(-c3ccc(C#N)cc3)cs2)c1=O` (single isomer, unassigned) [Compound 141-1], the IC50 against IDH1 R132H and on IDH1 R132C was under 300 nM each time. In the case of `CCOc1ccc(Cl)cc1-n1c(C=C(C)C)c(C(=O)N2CC3CCC(C2)N3)cc(-c2nc(-c3ccc(C#N)cc3)cs2)c1=O` (single isomer, unassigned) [Compound 141-2], the IC50 against IDH1 R132H was 300 to 1000 nM; at IDH1 R132C, under 300 nM. On IDH1 R132C, `CCOc1ccc(Cl)cc1-n1c(C=C(C)C)c(C(=O)N2CCNCC2)cc(-c2nc(-c3ccc(Cl)cc3)cs2)c1=O` (single isomer, unassigned) [Compound 143-1] displayed an IC50 of 300 to 1000 nM. Turning to `CCc1ccc(Cl)cc1-n1c(C=C(C)C)c(C(=O)N2CCNCC2)cc(-c2nc(-c3ccc(Cl)cc3)cs2)c1=O` (single isomer, unassigned) [Compound 144-1], the IC50 against IDH1 R132H and against IDH1 R132C was under 300 nM each time.

On to `CCc1ccc(Cl)cc1-n1c(C=C(C)C)c(C(=O)N2CCNCC2)cc(-c2nc(-c3ccc(Cl)cc3)cs2)c1=O` (single isomer, unassigned) [Compound 144-2], for which the IC50 on IDH1 R132H is under 300 nM; at IDH1 R132C, 300 to 1000 nM. On to `CCc1ccc(OC)cc1-n1c(C=C(C)C)c(C(=O)N2CCNCC2)cc(-c2nc(-c3ccc(Cl)cc3)cs2)c1=O` (single isomer, unassigned) [Compound 151-2], for which, on IDH1 R132C, the IC50 was in the range of 300 to 1000 nM.

On to `CCc1ccc(Cl)cc1-n1c(C=C(C)C)c(C(=O)N2CCNCC2)cc(-c2nc(-c3ccc(Cl)cc3)cs2)c1=O` [Compound 101], for which the IC50 on IDH1 R132H and at IDH1 R132C was under 300 nM throughout. As to `CCc1ccc(OC)cc1-n1c(C=C(C)C)c(C(=O)N2CCNCC2)cc(-c2nc(-c3ccc(C(F)(F)F)cc3)cs2)c1=O` [Compound 102], the IC50 against IDH1 R132H and against IDH1 R132C was under 300 nM in each case. In the case of `CCc1ccc(OC)cc1-n1c(C=C(C)C)c(C(=O)N2CCNCC2)cc(-c2nc(-c3ccc(C(F)(F)F)nc3)cs2)c1=O` [Compound 103], the IC50 at IDH1 R132H and on IDH1 R132C was under 300 nM in each case.

As to `CCc1ccc(OC)cc1-n1c(C=C(C)C)c(C(=O)N2CCNCC2)cc(-c2nc(-c3ccc(C(F)F)cc3)cs2)c1=O` [Compound 104], the IC50 against IDH1 R132H and against IDH1 R132C was under 300 nM in each case. `CCOc1ccc(Cl)c(-n2c(C=C(C)C)c(C(=O)N3CCNCC3)cc(-c3nc(-c4ccc(C(F)(F)F)cc4)cs3)c2=O)c1` [Compound 105]: the IC50 on IDH1 R132H and on IDH1 R132C was under 300 nM throughout. For the compound `CCOc1ccc(Cl)c(-n2c(C=C(C)C)c(C(=O)N3CCNCC3)cc(-c3nc(-c4ccc(C(F)F)cc4)cs3)c2=O)c1` [Compound 106], the IC50 on IDH1 R132H and against IDH1 R132C was under 300 nM in each case. Regarding `CCOc1ccc(Cl)cc1-n1c(C=C(C)C)c(C(=O)N2CCN[C@@H](C)C2)cc(-c2nc(-c3ccc(C(F)(F)F)cc3)cs2)c1=O` [Compound 107], the IC50 on IDH1 R132H and on IDH1 R132C was under 300 nM in each case. As for `CCc1cccc(CC)c1-n1c(C=C(C)C)c(C(=O)N2CCN[C@@H](C)C2)cc(-c2nc(-c3ccc(C(F)F)cc3)cs2)c1=O` [Compound 108], the IC50 against IDH1 R132H and against IDH1 R132C was under 300 nM in each case. Turning to `CCc1cccc(CC)c1-n1c(C=C(C)C)c(C(=O)N2CCN[C@@H](C)C2)cc(-c2nc(-c3ccc(Cl)cc3)cs2)c1=O` [Compound 109], the IC50 at IDH1 R132H and at IDH1 R132C was under 300 nM each time. On to `CCOc1ccc(Cl)cc1-n1c(C=C(C)C)c(C(=O)N2CCN[C@H](C)C2)cc(-c2nc(-c3ccc(C(F)(F)F)cc3)cs2)c1=O` [Compound 110], for which the IC50 against IDH1 R132H and on IDH1 R132C was under 300 nM each time. With `CCc1cccc(CC)c1-n1c(C=C(C)C)c(C(=O)N2CCN[C@H](C)C2)cc(-c2nc(-c3ccc(C(F)F)cc3)cs2)c1=O` [Compound 111], the IC50 at IDH1 R132H and on IDH1 R132C was under 300 nM in each case. `CCc1cccc(CC)c1-n1c(C=C(C)C)c(C(=O)N2CCN[C@H](C)C2)cc(-c2nc(-c3ccc(Cl)cc3)cs2)c1=O` [Compound 112]: the IC50 at IDH1 R132H and against IDH1 R132C was under 300 nM each time. With `CCOc1ccc(Cl)cc1-n1c(C=C(C)C)c(C(=O)N2CC3CCC(C2)N3)cc(-c2nc(-c3ccc(Cl)cc3)cs2)c1=O` [Compound 113], the IC50 against IDH1 R132H and against IDH1 R132C was under 300 nM in each case.

`CCc1ccc(OC)cc1-n1c(C=C(C)C)c(C(=O)N2CC3CCC(C2)N3)cc(-c2nc(-c3ccc(Cl)cc3)cs2)c1=O` [Compound 114]: the IC50 against IDH1 R132H and at IDH1 R132C was under 300 nM each time. For the compound `CCOc1ccc(Cl)cc1-n1c(C=C(C)C)c(C(=O)N2CC3CCC(C2)N3)cc(-c2nc(-c3ccc(C(F)(F)F)cc3)cs2)c1=O` [Compound 115], the IC50 against IDH1 R132H and against IDH1 R132C was under 300 nM in each case.

As to `CCc1cccc(CC)c1-n1c(C=C(C)C)c(C(=O)N2CC3CCC(C2)N3)cc(-c2nc(-c3ccc(C(F)F)cc3)cs2)c1=O` [Compound 116], the IC50 at IDH1 R132H and on IDH1 R132C was under 300 nM each time.

On to `CCc1ccc(Cl)cc1-n1c(CC(C)C)c(C(=O)N2CCNCC2)cc(-c2nc(-c3ccc(C(F)F)cc3)cs2)c1=O` [Compound 118], for which the IC50 on IDH1 R132H and at IDH1 R132C was 300 to 1000 nM each time. Regarding `CCc1cccc(CC)c1-n1c(C=C(C)C)c(C(=O)N2C[C@H]3CC[C@@H](C2)N3)cc(-c2nc(-c3ccc(C(F)F)nc3)cs2)c1=O` [Compound 119], the IC50 on IDH1 R132H and on IDH1 R132C was under 300 nM each time.

Take `CCc1ccc(Cl)cc1-n1c(C=C(C)C)c(C(=O)N2CCNCC2)cc(-c2nc(-c3ccc(C(F)(F)F)nc3)cs2)c1=O` [Compound 122]: the values for the IC50 on IDH1 R132H and on IDH1 R132C were 300 to 1000 nM and 1000 to 5000 nM, respectively.
